Entries after “also recorded” stand apart in the source; their conditions may differ. Like-named read-outs stand apart in the source and are kept apart here.
What was measured:
[1] = system: Leishmania (L.) infantum promastigotes; assay: Activity against L. (L.) infantum promastigotes (MTT viability assay); assay type: cell-based; details: 48 h at 24 °C, NA = not active, maximum tested concentration 100 μM; for EC50: read-out: EC50 Leishmania (L.) infantum Promastigote (95% CI)
Method: (§1) Isolated promastigotes of Leishmania (L.) infantum (MHOM/BR/1972/LD) were maintained in M-199 medium supplemented with 10% calf serum and 0.25% hemin at 24 °C. The L. (L.) infantum (MHOM/BR/1972/LD) was maintained in hamsters (Mesocricetus auratus). Amastigotes were harvested from spleens of infected hamsters. The animals were infected with 10^8 amastigotes (300 μL) by the i.p. route. At 60 days post-infection, the animals were euthanized, and the spleens analyzed by light microscopy using Giemsa-stained smears. The parasite load was expressed in Leishman-Donovan units (i.e., the number of amastigotes per 1000 nucleated cells x organ weight [in g] × 2 × 10^5). Briefly, the spleen was macerated in a tissue grinder tube containing 5 mL of phosphate-buffered saline (PBS), whereas the amastigotes were separated by differential centrifugation to obtain a suspension of parasites. The first centrifugation of the spleen suspension (0.8 rpm) was employed to separate the red and white cells (pellet) from the amastigote forms (supernatant). Next, a second centrifugation of the supernatant from the previous step (2.8 rpm) was performed to concentrate the amastigote forms.
Promastigotes were counted in a Neubauer hemocytometer and seeded at 1 × 10^6/well to obtain a final volume of 150 μL. Controls with DMSO and without drugs were also performed. Miltefosine was dissolved in H2O at 30 mg/mL and used as a standard drug. […] Each point was tested in duplicate. The plate was incubated for 48 h at 24 °C and the viability of promastigotes was verified by morphology in light microscopy and by the MTT assay. Briefly, MTT ([…]) was dissolved in PBS, sterilized through 0.22 μm membranes and added (20 μL/well) for 4 h at 24 °C. Promastigotes were incubated without compounds and used as viability control. Formazan extraction was performed using 10% SDS for 18 h (80 μL/well) at 24 °C and the optical density (OD) was determined in a Multiskan MS (UNISCIENCE) at 550 nm. One hundred percent (100%) viability was expressed based on the OD of control promastigotes, after normalization.
(§2) The obtained data represent the mean and standard deviation of duplicate samples from two independent assays. EC50 values were calculated using sigmoid dose–response curves in the software GraphPad Prism 5.0; the 95% confidence intervals are included in parentheses. The Mann–Whitney test was used for the significance test (P value).

[2] = system: Leishmania (L.) infantum intracellular amastigotes; assay: Activity against L. (L.) infantum intracellular amastigotes in mouse peritoneal macrophages (Giemsa counting, parasitic index); assay type: cell-based; details: for EC50: read-out: EC50 Leishmania (L.) infantum Amastigote (95% CI)
Method: as §1
Peritoneal macrophages were collected from the peritoneal cavity of female BALB/c mice by washing with RPMI-1640 without phenol red, supplemented with 10% fetal bovine serum.
Amastigotes were isolated from spleens of previously infected hamsters, and separated by differential centrifugation. The tissue sample was macerated to break the cell membranes to release all cell contents including the amastigotes. Then the lysate was subjected to two repeated centrifugations (0.8 rpm followed 2.8 rpm) where density separation causes a sediment. The supernatant and the pellet were recovered via the first and second centrifugation, respectively. […] Non-internalized parasites were removed by washing once with medium, whereas tested compounds were incubated with infected macrophages for 96 h. Miltefosine was also used as a standard control drug. Subsequently, the cells were fixed with MeOH, stained with Giemsa and observed through a light microscope. The parasite burden was determined by the ratio of infected macrophages versus the mean number of amastigotes per macrophage out of 500 macrophages, i.e., the parasitic index (PI). […] Each point was tested in duplicate.
as §2

[3] = Cytotoxicity against mammalian cells (MTT assay); details: mouse
NCTC clone L-929 cells = assay: Cytotoxicity against mammalian cells (MTT assay); details: CC50 against mammalian cells / EC50 against amastigotes
[4] = Peritoneal macrophage, 96 h, intracellular amastigotes in BALB/c peritoneal macrophages, 96 h incubation, NA = not active, maximum tested concentration 100 μM
[5] = intracellular amastigotes in BALB/c peritoneal macrophages, 96 h incubation, NA = not active, maximum tested concentration 100 μM

SMILES | EC50 ([1]; 48 h) [µM] | EC50 [1] [µM] | EC50 [2, 4] [µM] | EC50 [2, 5] [µM] | CC50 at 48 h ([3]; NCTC clone L-929 cells) [µM] | SI Amastigote (selectivity index) (NCTC clone L-929 cells) | EC50 Leishmania (L.) infantum Promastigote (95% CI) [1] | EC50 Leishmania (L.) infantum Amastigote (95% CI) [2, 5] | EC50 Leishmania (L.) infantum Amastigote (95% CI) ([2]; 96 h, 100 µM) | CC50 at 48 h [3] [µM]
CCCCCCCCCCCCCCCCOP(=O)([O-])OCC[N+](C)(C)C [miltefosine, reference compound] | 16.9 | 16.4 | 16.4 | 16.9 | 122 | 7.2 |  |  |  | 
C=CCc1cc(OC)c(O)c(-c2cc(CC=C)cc(OC)c2O)c1 [Compound 5] |  |  |  |  | 58.1 |  | no activity | inactive |  | 
C=CCc1ccc(Oc2cc([C@H](O)C=C)cc(OC)c2O)c(OC)c1 [Compound 3, 1-[(7R)-hydroxy-8-propenyl]-3-[3′-methoxy-1′-(8′-propenyl)-phenoxy]-4-hydroxy-5-methoxybenzene] |  |  |  |  | > 200 |  | no activity | inactive |  | 
C=CCc1ccc(Oc2cc([C@H](O)C=C)cc(OC)c2OC)c(OC)c1 [Compound 4, 1-[(7R)-hydroxy-8-propenyl]-3-[3′-methoxy-1′-(8′-propenyl)-phenoxy]-4,5-dimethoxybenzene] | 65.4 |  | 67.7 |  | > 200 | > 2.9 |  |  |  | 
C=CCc1ccc(OC)c(OC)c1 [methyleugenol] |  |  |  |  |  |  |  | did not display activity | no activity | > 200
C=CCc1cc(OC)c(OC)c(-c2cc(CC=C)cc(OC)c2OC)c1 [Compound 6, dehydrodieugenol dimethyl ether] | 88.8 |  | 13.7 |  | > 200 | > 14.6 |  |  |  | 
C=CCc1ccc(O)c(OC)c1 [eugenol, reference compound] |  |  |  |  | > 200 |  | no activity | did not display activity; also recorded: no activity |  | 
